# Reference: patent US8623830B2, “Compositions containing α-1-antitrypsin and methods for use” (Beth Israel Deaconess Medical Center, Inc., priority 2006, dated 2014)
# How the values were obtained:
# [1] = system: 1-AZT, a misfolded but functionally active mutant of α1-antitrypsin; conditions: model cell culture system; cited from earlier work
# [2] = cited from earlier work
# [3] = system: new onset diabetic NOD mice; experiment: Treatment of new onset diabetic NOD mice, blood glucose monitoring (normoglycemia); assay type: in vivo, mouse
# Excerpt: Female NOD (NOD/LtJx) mice and NOD.SCID (NOD.CB17-Prkdc^scid/J) were purchased from Jackson Laboratories (Bar Harbor, Me.) at 4 weeks of age and maintained under pathogen-free conditions in a conventional animal facility at Massachusetts General Hospital (Boston, Mass.). All animal studies were approved by our institutional review boards. The blood glucose levels of NOD mice were monitored weekly with the ACCU-CHECK® blood glucose monitor system (Roche, Indianapolis, Ind.). […] For syngeneic islet transplant recipients, blood glucose levels were checked at the time of transplantation, then daily for the first two weeks, and then 2 to 3 times per week afterward.
# ARALAST™ (α1-proteinase inhibitor, human) is a major serum serine-protease inhibitor that inhibits the enzymatic activity of neutrophil elastase, cathespin G, proteinase 3, thrombin, trypsin, and chymotrypsin. ARALAST™ was purchased from Baxter (Westlake Village, Calif.) and was given at a dose of 2 mg i.p. every 3 days, for a total of 5 injections.
# insulin receptor (IR) = experiment: In vivo insulin signaling in skeletal muscle, immunoblotting of IR phosphorylation; parameters: species or system mouse; conditions: skeletal muscle of new onset diabetic NOD mice, FIG. 1
# Protocol: (§1) FIG. 1 is a pair of bar graphs representing the results obtained from studies of insulin signaling in skeletal muscle. The upper graph charts insulin receptor (IR) phosphorylation and the lower graph charts insulin receptor substrate-1 (IRS-1) phosphorylation in control, diabetic, and treated animals.
# (§2) In vivo insulin signaling experiments were performed on mice after a 16 hour fast. Mice were injected i.p. with 20 U/kg BW of human insulin (Eli Lilly) or saline. Skeletal muscle (gastronemius) was dissected and frozen in liquid nitrogen for immunoblotting analysis of insulin signaling proteins.
# (§3) Skeletal muscle (gastronemius), obtained in the context of our in vivo insulin signaling studies, was homogenized in a modified radioimmunoprecipitation assay (RIPA) buffer containing 50 mM Tris-HCl, 1 mM EDTA, 1% NP-40, 0.25% sodium deoxycholate, 150 mM NaCl, 1 mM PMSF, 200 μM […], supplemented with 1% protease inhibitor cocktail (Sigma), and 1% tyrosine phosphatase inhibitor cocktail (Sigma). Cell homogenates were incubated on ice for 45 minutes to solubilize all proteins, and insoluble portions were removed by centrifugation at 14,000 g at 4° C. for 15 minutes. Whole cell lysates were separated by SDS-polyacrylamide gel electrophoresis (PAGE). […] The blots were quantified using densitometry (Molecular Dynamics, Sunnvale, Calif.).
# [4] = system: insulin receptor substrate-1 (IRS-1); experiment: In vivo insulin signaling in skeletal muscle, immunoblotting of IRS-1 phosphorylation; parameters: species or system mouse; conditions: skeletal muscle of new onset diabetic NOD mice, FIG. 1
# Protocol: as §1, §2, §3
# [5] = subcutaneous injection of 25 mg twice a week; average; cited from earlier work
compound,measurement,setting,value
"O=C(O)CCCc1ccccc1 [PBA, 4-phenylbutyric acid]",Secretion of 1-AZT,[1],marked increase
"AAT: α1-antitrypsin, plasma serine protease inhibitor (serpin)",Half life in plasma,[2],approximately six
same,Effect of a short course on glycemia,[3],restores normoglycemia
"Aralast ™: α1-proteinase inhibitor, human; major serum serine-protease inhibitor, purchased from Baxter",Tyrosyl-phosphorylation of insulin receptor (IR),insulin receptor (IR),restored
same,Phosphorylation of insulin receptor substrate-1 (IRS-1),[4],restored
same,Days after treatment (how long the animals have been normoglycemic),[3]; animals still alive at writing,90 to 300 days
Etanercept,Time to peak blood levels,[5],72 h
